Activity calls are given as the source filed them. No cut-off for these calls is given here.
Legend:
Mythimna separata [1] = experiment: In vivo insecticidal activity against pre-third-instar larval stage of Mythimna separata (Oriental armyworm) in corn leaves assessed as induction of molting to abnormal pupae at 1 mg/ml treated for 3 secs before larval infestation on corn leaves by leaf-dipping method; type: functional, organism-based
Mythimna separata [2] = experiment: In vivo insecticidal activity against pre-third-instar larval stage of Mythimna separata (Oriental armyworm) in corn leaves assessed as inhibition of adult emergence at 1 mg/ml treated for 3 secs before larval infestation on corn leaves by leaf-dipping method; type: functional, organism-based
Mythimna separata [3] = experiment: In vivo insecticidal activity against pre-third-instar larval stage of Mythimna separata (Oriental armyworm) in corn leaves assessed as reduction in larval movement at 1 mg/ml treated for 3 secs before larval infestation on corn leaves measured after 24 hr by leaf-dipping method; type: functional, organism-based
Mythimna separata [4] = experiment: In vivo insecticidal activity against pre-third-instar larval stage of Mythimna separata (Oriental armyworm) in corn leaves assessed as induction of larval immobility at 1 mg/ml treated for 3 secs before larval infestation on corn leaves measured after 48 hr by leaf-dipping method; type: functional, organism-based
Mythimna separata [5] = experiment: In vivo insecticidal activity against pre-third-instar larval stage of Mythimna separata (Oriental armyworm) in corn leaves assessed as induction of loss of body liquid at 1 mg/ml treated for 3 secs before larval infestation on corn leaves measured after 48 hr by leaf-dipping method; type: functional, organism-based
Mythimna separata [6] = experiment: In vivo insecticidal activity against pre-third-instar larval stage of Mythimna separata (Oriental armyworm) in corn leaves assessed as corrected mortality rate at 1 mg/ml treated for 3 secs before larval infestation on corn leaves measured after 33 days by leaf-dipping method; type: functional; settings: 792 h
Mythimna separata [7] = experiment: In vivo insecticidal activity against pre-third-instar larval stage of Mythimna separata (Oriental armyworm) in corn leaves assessed as corrected mortality rate at 1 mg/ml treated for 3 secs before larval infestation on corn leaves measured after 20 days by leaf-dipping method; type: functional; settings: 480 h
Mythimna separata [8] = experiment: In vivo insecticidal activity against pre-third-instar larval stage of Mythimna separata (Oriental armyworm) in corn leaves assessed as inhibition of larval pupation at 1 mg/ml treated for 3 secs before larval infestation on corn leaves by leaf-dipping method; type: functional, organism-based
Mythimna separata [9] = experiment: In vivo insecticidal activity against pre-third-instar larval stage of Mythimna separata (Oriental armyworm) in corn leaves assessed as corrected mortality rate at 1 mg/ml treated for 3 secs before larval infestation on corn leaves measured after 10 days by leaf-dipping method; type: functional; settings: 240 h

| SMILES | Activity (Mythimna separata [1]) | Activity (Mythimna separata [2]) | Activity (Mythimna separata [3]) | Activity (Mythimna separata [4]) | Activity (Mythimna separata [5]) | mortality at 1000 µg/mL (Mythimna separata [6]) | mortality at 1000 µg/mL (Mythimna separata [7]) | Activity (Mythimna separata [8]) | mortality at 1000 µg/mL (Mythimna separata [9]) |
| --- | --- | --- | --- | --- | --- | --- | --- | --- | --- |
| COC(=O)c1cccc([N+](=O)[O-])c1C(=O)N[C@@H]1c2cc3c(cc2[C@@H](c2cc(OC)c(OC)c(OC)c2)[C@H]2C(=O)OC[C@@H]21)OCO3 | Active | Active | Active | Active | Active | 35.7% | 20.6% | Active | 10% |
| COC(=O)c1ccccc1C(=O)N[C@@H]1c2cc3c(cc2[C@@H](c2cc(OC)c(OC)c(OC)c2)[C@H]2C(=O)OC[C@@H]21)OCO3 | Active | Active | Active | Active | Active | 42.8% | 10.3% | Active | 6.6% |
| COC(=O)c1cccc([N+](=O)[O-])c1C(=O)O[C@@H]1c2cc3c(cc2[C@@H](c2cc(OC)c(OC)c(OC)c2)[C@H]2C(=O)OC[C@@H]21)OCO3 | Active | Active | Active | Active | Active | 42.8% | 17.2% | Active | 10% |
| COC(=O)c1ccccc1C(=O)O[C@H]1c2cc3c(cc2[C@@H](c2cc(OC)c(OC)c(OC)c2)[C@@H]2C(=O)OC[C@@H]21)OCO3 | Active | Active | Active | Active | Active | 17.8% | 10.3% | Active | 10% |
| COC(=O)c1ccccc1C(=O)O[C@H]1c2cc3c(cc2[C@@H](c2cc(OC)c(OC)c(OC)c2)[C@@]2(Cl)C(=O)OC[C@H]12)OCO3 | Active | Active | Active | Active | Active | 53.5% | 31% | Active | 16.6% |
| CC(=O)O[C@@H]1C[C@H](O)[C@@]23CO[C@@H](O)[C@]1(C)[C@@H]2C[C@@H](O)[C@]1(C)[C@@H]3C(=O)[C@H](OC(C)=O)[C@@]2(C)[C@H](c3ccoc3)C[C@H]3O[C@]321 [TOOSENDANIN] |  |  |  |  |  | 50% | 31% |  | 30% |
| COC(=O)c1ccccc1C(=O)Oc1c(OC)cc([C@@H]2c3cc4c(cc3[C@@H](OC(=O)c3c(C(=O)OC)cccc3[N+](=O)[O-])[C@H]3COC(=O)[C@H]23)OCO4)cc1OC | Active | Active | Active | Active | Active | 28.5% | 20.6% | Active | 16.6% |
| COc1cc([C@@H]2c3cc4c(cc3[C@H](O)[C@H]3COC(=O)[C@H]23)OCO4)cc(OC)c1OC [PODOFILOX] |  |  |  |  |  | 35.7% | 20.6% |  | 16.6% |
| COC(=O)c1ccccc1C(=O)Oc1c(OC)cc([C@@H]2c3cc4c(cc3[C@@H](OC(=O)c3ccccc3C(=O)OC)[C@H]3COC(=O)[C@H]23)OCO4)cc1OC | Active | Active | Active | Active | Active | 21.4% | 17.2% | Active | 16.6% |
| COC(=O)c1cccc([N+](=O)[O-])c1C(=O)O[C@H]1c2cc3c(cc2[C@@H](c2cc(OC)c(OC)c(OC)c2)[C@@H]2C(=O)OC[C@@H]21)OCO3 | Active | Active | Active | Active | Active | 14.2% | 13.7% | Active | 13.3% |
| COC(=O)c1ccccc1C(=O)O[C@H]1c2cc3c(cc2[C@@H](c2cc(OC)c(OC)c(OC)c2)[C@H]2C(=O)OC[C@@H]21)OCO3 | Active | Active | Active | Active | Active | 35.7% | 24.1% | Active | 16.6% |
| COC(=O)c1cccc([N+](=O)[O-])c1C(=O)O[C@H]1c2cc3c(cc2[C@@H](c2cc(OC)c(OC)c(OC)c2)[C@@]2(Cl)C(=O)OC[C@H]12)OCO3 | Active | Active | Active | Active | Active | 46.4% | 41.3% | Active | 30% |
| COC(=O)c1ccccc1C(=O)O[C@@H]1c2cc3c(cc2[C@@H](c2cc(OC)c(OC)c(OC)c2)[C@H]2C(=O)OC[C@@H]21)OCO3 | Active | Active | Active | Active | Active | 38.5% | 20.6% | Active | 10% |
| COC(=O)c1cccc([N+](=O)[O-])c1C(=O)O[C@H]1c2cc3c(cc2[C@@H](c2cc(OC)c(OC)c(OC)c2)[C@H]2C(=O)OC[C@@H]21)OCO3 | Active | Active | Active | Active | Active | 21.4% | 6.9% | Active | 6.6% |

Reference: ChEMBL document CHEMBL3045474, “Natural products-based insecticidal agents 6. Design, semisynthesis, and insecticidal activity of novel monomethyl phthalate derivatives of podophyllotoxin against Mythimna separata Walker in vivo” (2010)
